Among the test systems are 786-0; A549; CAKI-1; COLO 205; EKVX; HCT-116; HCT-15; HL-60; HT-29; IGROV-1; MDA-MB-231; OVCAR-4; RXF 393; SF-295; SF-539; SK-MEL-28; SK-MEL-2; SK-OV-3; DU-145; SN12C.
Common to all, as to experiment: inhibition of tumour cell growth, NCI panel, 48 h

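In this assay, cells in 96-well plates receive the compound at five concentrations for 48 hours. Endpoints are linearly interpolated between the surrounding concentrations. GI50 = concentration required for 50% inhibition of growth.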 Active and inactive are the calls of the source. Cut-off read from the data, not from the text of the source: active = GI50 up to about 1.1 µM and inactive = higher.

Results on twelve molecules are retold here after ChEMBL document CHEMBL1201862, “PubChem BioAssay data set” (2004).

As for `COc1ccccc1N=C(S)Nc1ccccn1`, the GI50 with 786-0 was 56.5 µM (inactive); in the assay with A549, > 100 µM (inactive); with CAKI-1, > 100 µM (inactive); in the assay with COLO 205, > 100 µM (inactive); in the assay with EKVX, 55 µM (inactive); in the assay with HCT-116, > 100 µM (inactive). For the same molecule, the GI50 is over 100 µM in the assay with HCT-15; > 100 µM (inactive) in the assay with HL-60; > 100 µM (inactive) in the assay with HT-29; > 100 µM (inactive) in the assay with IGROV-1; > 100 µM (inactive) in the assay with MDA-MB-231; > 100 µM (inactive) in the assay with OVCAR-4. The GI50 in the assay with RXF 393 was 59 µM (inactive); in the assay on SF-295 it was 66.2 µM (inactive); with SF-539, 67.9 µM (inactive); with SK-MEL-28, > 100 µM (inactive); with SK-MEL-2, > 100 µM (inactive); in the assay on SK-OV-3, > 100 µM (inactive).

As for `O=C1CC(c2ccccc2)n2c(nc3ccccc32)N1` (stereo unspecified), the GI50 is 74.8 µM (inactive) with 786-0; > 100 µM (inactive) in the assay on A549; 35.3 µM (inactive) in the assay with CAKI-1; > 100 µM (inactive) with COLO 205; 73.5 µM (inactive) with EKVX; > 100 µM (inactive) with HCT-116. In addition, the GI50 was 46.8 µM with HCT-15; 16.8 µM (inactive) with HL-60; > 100 µM (inactive) in the assay on HT-29; 47.4 µM (inactive) in the assay on IGROV-1; > 100 µM (inactive) in the assay on MDA-MB-231; > 100 µM (inactive) in the assay with OVCAR-4. Also, the GI50 was 21 µM (inactive) in the assay on RXF 393; > 100 µM (inactive) with SF-295; > 100 µM (inactive) with SF-539; 18.9 µM (inactive) in the assay with SK-MEL-2; > 100 µM (inactive) in the assay with SK-OV-3.

`O=CN/C=C/c1ccccc1`: the GI50 in the assay on 786-0 is > 100 µM (inactive); in the assay on A549, > 100 µM (inactive); with CAKI-1 it was > 100 µM (inactive); in the assay with COLO 205, > 63.2 µM (inactive); in the assay with DU-145 it was > 100 µM (inactive); in the assay with EKVX it was > 100 µM (inactive). In addition, the GI50 is > 100 µM (inactive) in the assay on HCT-116; over 100 µM with HCT-15; > 100 µM (inactive) in the assay with HL-60; > 100 µM (inactive) in the assay on HT-29; > 100 µM (inactive) in the assay with IGROV-1; > 100 µM (inactive) in the assay on OVCAR-4. Besides, the GI50 in the assay with RXF 393, in the assay on SF-295, in the assay on SF-539, in the assay on SK-MEL-28, in the assay on SK-MEL-2 and in the assay with SK-OV-3 was > 100 µM (inactive) in each case. In addition, in the assay with SN12C, the GI50 is > 100 µM (inactive).

As for `O=c1[nH]c(N/N=C\C(=N/Nc2nc3ccccc3c(=O)[nH]2)C(O)C(O)C(O)CO)nc2ccccc12` (stereo unspecified), the GI50 with 786-0, in the assay with A549, in the assay on CAKI-1, with COLO 205, with DU-145 and in the assay on EKVX was > 100 µM (inactive) in each case. Besides, the GI50 in the assay on HCT-116 was > 100 µM (inactive); with HCT-15, over 100 µM; in the assay with HL-60, > 100 µM (inactive); in the assay with HT-29, > 100 µM (inactive); with IGROV-1 it was > 100 µM (inactive); in the assay with MDA-MB-231, > 100 µM (inactive). The GI50 in the assay on SF-295, in the assay with SF-539, in the assay on SK-MEL-28, in the assay on SK-MEL-2, in the assay on SK-OV-3 and with SN12C was > 100 µM (inactive) throughout.

With `COc1cc2c(c(OC)c1OC)-c1ccc(SC)cc1C(O)CC2` (stereo unspecified), the GI50 in the assay with 786-0 is < 0.01 µM (active); in the assay on A549, < 0.01 µM (active); with CAKI-1, 0.071 µM (active); in the assay on COLO 205, < 0.01 µM (active); in the assay on DU-145 it was < 0.01 µM (active); in the assay with EKVX it was 2.54 µM (inactive). In addition, the GI50 is < 0.01 µM (active) with HCT-116; under 0.01 µM in the assay on HCT-15; < 0.01 µM (active) in the assay on HL-60; < 0.01 µM (active) in the assay with IGROV-1; 0.394 µM (active) in the assay on MDA-MB-231; 1.94 µM (inactive) in the assay on OVCAR-4. Also, the GI50 is < 0.01 µM (active) in the assay on SF-295; < 0.01 µM (active) in the assay with SF-539; 55.6 µM (inactive) in the assay with SK-MEL-28; > 100 µM (inactive) in the assay on SK-MEL-2; 0.427 µM (active) in the assay with SN12C.

Turning to `O=C(O/N=C1/CCC/C1=C\c1ccccc1)c1ccc(Cl)cc1`, the GI50 in the assay on 786-0 is 51.8 µM (inactive); in the assay with A549, 64 µM (inactive); with CAKI-1 it was > 52.1 µM (inactive); in the assay on COLO 205, > 100 µM (inactive); in the assay on EKVX, > 67.3 µM (inactive); with HCT-116, > 100 µM (inactive). For the same molecule, the GI50 in the assay on HCT-15 was over 100 µM; in the assay with HL-60 it was > 56.1 µM (inactive); in the assay on HT-29, > 100 µM (inactive); in the assay with IGROV-1, > 46.5 µM (inactive); in the assay with OVCAR-4, 25.8 µM (inactive); in the assay on RXF 393 it was 18 µM (inactive). For the same molecule, the GI50 is 42 µM (inactive) in the assay on SF-295; 25.2 µM (inactive) with SF-539; > 100 µM (inactive) with SK-MEL-28; > 100 µM (inactive) in the assay on SK-MEL-2; > 70.3 µM (inactive) in the assay on SK-OV-3; > 58.6 µM (inactive) in the assay on SN12C.

Turning to `CC(C)NC(=O)OCc1c(COC(=O)NC(C)C)c(-c2cc[n+](COC(=O)CC(C)(C)C)cc2)n2c1CCC2`, the GI50 in the assay on 786-0 was > 100 µM (inactive); with A549, > 100 µM (inactive); in the assay on CAKI-1 it was > 100 µM (inactive); with COLO 205 it was > 100 µM (inactive); in the assay on EKVX, > 100 µM (inactive); in the assay with HCT-15 it was over 100 µM. Besides, the GI50 with HL-60, in the assay with IGROV-1, in the assay with MDA-MB-231, in the assay on OVCAR-4, in the assay with RXF 393 and with SF-295 was > 100 µM (inactive) each time. For the same molecule, the GI50 with SF-539, in the assay on SK-OV-3 and in the assay on SN12C was > 100 µM (inactive) in each case.

With `Cc1cn([C@H]2C[C@@H]3[C@@H](COC(CCl)N3O)O2)c(=O)[nH]c1=O` (stereo partly specified), the GI50 with 786-0, with A549, with CAKI-1, in the assay on COLO 205, in the assay with DU-145 and in the assay with EKVX was > 100 µM (inactive) throughout. Moreover, the GI50 in the assay with HCT-116 is > 100 µM (inactive); in the assay with HCT-15 it was over 100 µM; with HL-60, > 100 µM (inactive); in the assay on HT-29, > 100 µM (inactive); in the assay on IGROV-1, > 100 µM (inactive); in the assay with OVCAR-4, > 100 µM (inactive). Moreover, the GI50 with RXF 393, in the assay on SF-295, in the assay with SF-539, with SK-MEL-28, in the assay on SK-MEL-2 and in the assay with SK-OV-3 was > 100 µM (inactive) throughout. Also, the GI50 in the assay with SN12C is > 100 µM (inactive).

As for `COc1ccc2nc(-c3ccc(OC(=O)N(C)C)cc3)cn2c1`, the GI50 in the assay on 786-0 is 91.6 µM (inactive); in the assay with A549, > 100 µM (inactive); in the assay on CAKI-1 it was > 100 µM (inactive); in the assay on COLO 205 it was 41.4 µM (inactive); with EKVX, > 100 µM (inactive); with HCT-116, > 100 µM (inactive). Also, the GI50 with HL-60 was > 100 µM (inactive); in the assay with HT-29, 27.8 µM (inactive); in the assay on IGROV-1, > 100 µM (inactive); with MDA-MB-231 it was > 100 µM (inactive); with OVCAR-4 it was > 100 µM (inactive); with SF-295, 85.5 µM (inactive). The GI50 with SK-MEL-28, in the assay with SK-MEL-2, in the assay on SK-OV-3 and with SN12C was > 100 µM (inactive) throughout.

Turning to `COc1cc(S(=O)(=O)Nc2ccc(-c3csc(N4C(=O)CSC4c4cccc(Oc5ccccc5)c4)n3)cc2)ccc1Cl` (stereo unspecified), the GI50 was 46.9 µM (inactive) in the assay on 786-0; > 100 µM (inactive) in the assay on CAKI-1; 29.4 µM (inactive) in the assay with COLO 205; 48.4 µM (inactive) in the assay on DU-145; 44.2 µM (inactive) with EKVX; 29.9 µM (inactive) with HCT-116. In addition, the GI50 with HCT-15 is 61.7 µM; with HL-60, 21.1 µM (inactive); with HT-29, 47 µM (inactive); in the assay on IGROV-1, 50.7 µM (inactive); in the assay on OVCAR-4, 52.6 µM (inactive); in the assay with RXF 393 it was 16.7 µM (inactive). Further, the GI50 with SF-295 was 65.8 µM (inactive); in the assay on SF-539 it was 31.9 µM (inactive); in the assay with SK-MEL-28, 23 µM (inactive); in the assay on SK-OV-3 it was 71 µM (inactive); in the assay on SN12C it was 61.4 µM (inactive).

Take `[N-]=[N+]=Nc1ccccc1-[n+]1noc([O-])c1Br`: the GI50 in the assay with 786-0, in the assay with A549, in the assay with CAKI-1, in the assay on COLO 205, in the assay with EKVX and with HCT-116 was > 100 µM (inactive) in each case. Also, the GI50 in the assay with HCT-15 is over 100 µM; in the assay with HL-60, > 100 µM (inactive); with HT-29, > 100 µM (inactive); in the assay with IGROV-1, > 100 µM (inactive); in the assay on OVCAR-4, > 100 µM (inactive); in the assay with RXF 393 it was > 100 µM (inactive). Besides, the GI50 with SF-295, with SF-539, in the assay with SK-MEL-28, in the assay with SK-MEL-2, with SK-OV-3 and in the assay on SN12C was > 100 µM (inactive) throughout.

In the case of `O=c1oc2ccccc2c(O)c1C1c2c(c3ccccc3oc2=O)Oc2c1c(=O)oc1ccccc21`, the GI50 is 43.1 µM (inactive) in the assay with 786-0; 30.3 µM (inactive) in the assay on CAKI-1; 42.3 µM (inactive) in the assay with COLO 205; 53.5 µM (inactive) in the assay with DU-145; 45 µM (inactive) in the assay on EKVX; 36.6 µM (inactive) in the assay with HCT-116. Moreover, the GI50 is 27.9 µM in the assay on HCT-15; 30.2 µM (inactive) with HT-29; 35 µM (inactive) in the assay with IGROV-1; 32.4 µM (inactive) with MDA-MB-231; 32.9 µM (inactive) in the assay on OVCAR-4; 30.8 µM (inactive) in the assay on SK-MEL-28. Moreover, the GI50 with SK-MEL-2 is 51.6 µM (inactive); in the assay on SN12C it was 30.1 µM (inactive).
